Test results taken from patent US8808715B1, “Methods and compositions for modulating keratinocyte function” (Georgia Regents Research Institute, Inc, priority 2004, dated 2014).

Experiments:
[1] = tested on: rapidly dividing keratinocytes; assay: Assay of DNA synthesis ([3H]thymidine incorporation) in rapidly dividing keratinocytes; type: cell-based; conditions: for effect on DNA synthesis ([3H]thymidine incorporation into DNA) / lowest concentration at which inhibition of DNA synthesis was observed / inhibition of DNA synthesis, percent of control (in words) / concentration of maximal inhibition of DNA synthesis / inhibition of DNA synthesis compared with egg-derived PG / effect on DNA synthesis in presence of 125 μM Ca2+: 24 hours; for effect on DNA synthesis ([3H]thymidine incorporation into DNA): control (25 μM Ca2+) medium; for lowest concentration at which inhibition of DNA synthesis was observed / concentration of maximal inhibition of DNA synthesis / inhibition of DNA synthesis compared with egg-derived PG: liposomes; for lowest concentration at which inhibition of DNA synthesis was observed / inhibition of DNA synthesis compared with egg-derived PG: FIG. 20A; for inhibition of DNA synthesis, percent of control (in words) / concentration at which DNA synthesis was inhibited: FIG. 21B; for inhibition of DNA synthesis, percent of control (in words): PG versus PP headgroup species; for concentration at which DNA synthesis was inhibited: lowest tested 25 μg/mL, highest tested 100 μg/mL; for effect on DNA synthesis in presence of 125 μM Ca2+: 125 μM Ca2+ medium
Experimental: (§1) Keratinocytes were prepared from ICR CD-I outbred mice in accordance with a protocol approved by the Institutional Animal Care and Use Committee. Briefly, the skins were harvested and incubated overnight in 0.25% trypsin at 4° C. The epidermis and dermis were separated and basal keratinocytes scraped from the underside of the epidermis. The cells were collected by centrifugation and incubated overnight in an atmosphere of 95% air/5% carbon dioxide at 37° C. in plating medium as described in Dodd M E, Ristich V L, Ray S, Lober R M, Bollag W B (2005) Regulation of protein kinase D during differentiation and proliferation of primary mouse keratinocytes. J Invest Dermatol 125:294-306, incorporated herein by reference. The plating medium was replaced with serum-free keratinocyte medium (SFKM) also as in Dodd, et al., and the cells were refed every 1-2 days with fresh medium until use.
(§2) [^3H]Thymidine incorporation into DNA was determined as a measure of DNA synthesis as previously described by Griner, et al., above. Near-confluent keratinocyte cultures were incubated for 24 hours in SFKM containing the indicated additions. PG was added in the form of liposomes prepared by bath sonication of dried PG in SFKM to make a stock solution of 2 mg/mL. [^3H]Thymidine at a final concentration of 1 μCi/mL was then added to the cells for an additional 1-hour incubation. Reactions were terminated by washing with PBS- and macromolecules precipitated with ice-cold 5% trichloroacetic acid. Cells were solubilized in 0.3 M NaOH and the radioactivity incorporated into DNA quantified by liquid scintillation spectroscopy.
(§3) [^3H]Thymidine incorporation was used as a measure of DNA synthesis and was performed as described in Example 2. Liposomes containing PG and functional derivatives thereof were prepared by bath sonication as described in Example 2, with the exception that different concentrations of material were employed.

[2] = tested on: slowly dividing keratinocytes; assay: Assay of DNA synthesis ([3H]thymidine incorporation) in slowly proliferating keratinocytes; type: cell-based, mouse; conditions: liposomes, 24 hours; for effect on DNA synthesis ([3H]thymidine incorporation into DNA): keratinocytes with reduced proliferation; for lowest concentration at which stimulation of DNA synthesis was observed / stimulation of DNA synthesis compared with egg-derived PG: FIG. 20B
Experimental: Confluent keratinocytes were treated for 24 hours with the indicated concentrations of phosphatidylglycerol (PG), prepared via bath sonication of PG in serum-free keratinocyte medium. [^3H]Thymidine incorporation into DNA was then determined as above. [^3H]Thymidine incorporation into DNA under control conditions was 12,880±1,040 cpm/well. Values represent the means±SEM of 3 separate experiments performed in duplicate; *p<0.01, **p<0.001 versus the control value.
as §1, §2, §3

AQP3 null mutant mouse = conditions: studies of the AQP3 null mutant mouse; cited from earlier work
[3] = tested on: primary epidermal keratinocytes; assay: Radiolabeled phosphatidylglycerol formation in intact keratinocytes; type: cell-based, mouse
Experimental: Primary epidermal keratinocytes were prepared from 1-3-day old neonatal ICR mice after trypsin flotation of the skin and mechanical separation of the epidermis from the dermis. The epidermal cells were released by scraping, collected by centrifugation and plated in 6-well dishes in a medium consisting of MEM containing 25 μM calcium, 2% dialyzed fetal bovine serum, 2 mM glutamine, 5 ng/mL EGF, ITS (6.25 μg/mL insulin+6.25 μg/mL transferrin+6.25 ng/mL selenious acid+5.35 μg/mL linoleic acid+1.25% bovine serum albumin), 100 U/mL penicillin, 100 μg/mL streptomycin and 0.25 μg/mL fungizone. After an overnight incubation, the cells were refed with serum-free keratinocyte medium (SFKM), in which 2% dialyzed fetal bovine serum was replaced with 90 μg/mL bovine pituitary extract. Cells were refed with fresh medium every 1-3 days.
For the PLD assay cultured primary keratinocytes were labeled for 20-24 hours with 2.5 μCi/ml [^3H] oleic acid. The cells were then exposed to vehicle or 100 nM PMA in the presence of 0.5% ethanol for 30 minutes. To measure the formation of radiolabeled phosphatidylglycerol, cells were treated for 24 hours with SFKM containing vehicle, 250 nM 1,25-dihydroxyvitamin D3 or 125 μM calcium and then labeled for an additional 30 minutes with 1-2.5 μCi/mL [^3H] or 0.4-0.5 μCi/mL [^14C]glycerol. For experiments investigating the extracellular calcium dependence of PG formation, cells were incubated for 24 hours in SFKM containing various calcium concentrations prior to the addition of 5 μCi/mL [^3H]glycerol for 30 minutes. In some cases, cells were stimulated with 25 μM calcium (control)—or 125 μM calcium-containing SFKM for 24 hours prior to the addition of [^14C]glycerol in the presence and absence of 1% ethanol. To measure phosphatidylglycerol formation in response to PMA, unlabeled cells were stimulated with 100 nM PMA in the presence of radiolabeled glycerol, as above. Reactions were terminated and the radiolabeled phosphatidylalcohol extracted, separated by thin-layer chromatography and quantified as described by Bollag (1998), referenced above.

## CCCCCCCC/C=C\CCCCCCCC(=O)O[C@H](COC(=O)CCCCCCCCCCCCCCC)COP(=O)(O)OCC(O)CO (some centres unmarked) [POPG, palmitoyl-oleoyl-PG]
[1]
  effect on DNA synthesis ([3H]thymidine incorporation into DNA): moderate inhibition of DNA synthesis
  lowest concentration at which inhibition of DNA synthesis was observed: 100 µg/mL
[2]
  effect on DNA synthesis ([3H]thymidine incorporation into DNA): only mildly stimulatory

## CCCCC/C=C\C/C=C\CCCCCCCC(=O)OC[C@H](COP(=O)(O)OCCC)OC(=O)CCCCCCC/C=C\C/C=C\CCCCC [DLPP, dilinoleoyl-PP]
[1]
  inhibition of DNA synthesis, percent of control (in words): not statistically significant
  concentration at which DNA synthesis was inhibited: 100 µg/mL

## CCCCC/C=C\C/C=C\CCCCCCCC(=O)OC[C@H](COP(=O)(O)OCC(O)CO)OC(=O)CCCCCCC/C=C\C/C=C\CCCCC (some centres unmarked) [DLPG, dilinoleoyl-PG]
[1]
  effect on DNA synthesis ([3H]thymidine incorporation into DNA): inhibit DNA synthesis in a dose dependent manner
  concentration at which DNA synthesis was inhibited: ≤ 25 µg/mL
  concentration of maximal inhibition of DNA synthesis: 100 µg/mL
  inhibition of DNA synthesis compared with egg-derived PG: at least as strongly as egg-derived PG
  lowest concentration at which inhibition of DNA synthesis was observed: 6.25 µg/mL

## CC(O)CO (centres unmarked) [1,2-propylene glycol]
[1]
  effect on DNA synthesis in presence of 125 μM Ca2+: dose dependent inhibition
  effect on DNA synthesis ([3H]thymidine incorporation into DNA): dose dependent inhibition
AQP3 null mutant mouse
  correction of the epidermal phenotype of the knockout model: not

## CCCCCCCCCCCCCCCC(=O)OC[C@H](COP(=O)(O)OCCC)OC(=O)CCCCCCCCCCCCCCC [DPPP, dipalmitoyl-PP]
[1]
  effect on DNA synthesis ([3H]thymidine incorporation into DNA): did not affect DNA synthesis
  inhibition of DNA synthesis, percent of control (in words): lack of effect

## CCO [ethanol]
[3]; 1% ethanol, 25 μM calcium control cells
  basal (control) PG production: without affecting basal (control) PG production
[3]; 1% ethanol, cells pretreated with 125 μM calcium, [14C]glycerol
  PG formation stimulated by preexposure to elevated extracellular calcium: significantly inhibited PG formation

## OCCCO [1,3-propylene glycol]
AQP3 null mutant mouse
  correction of the epidermal phenotype of the knockout model: not

## CCCCCC(=O)OCC(COP(=O)(O)OCC(O)CO)OC(=O)CCCCC (centres unmarked) [DHPG, dihexanoyl-PG]
[2]
  effect on DNA synthesis ([3H]thymidine incorporation into DNA): only mildly stimulatory

## C=C1/C(=C\C=C2/CCC[C@]3(C)[C@@H]([C@H](C)CCCC(C)(C)O)CC[C@@H]23)C[C@@H](O)C[C@@H]1O [1,25-dihydroxyvitamin D3]
[3]; 24 hours pretreatment (250 nM 1,25-dihydroxyvitamin D3 or 125 μM calcium), then [3H]glycerol 30 minutes
  radiolabeled PG formation relative to control cells: did not increase radiolabeled PG formation
[3]; intermediate (10 nM) and high (250 nM) concentrations, 24 hours
  PG production: significantly inhibited PG production

## CCCCCCCCCCCCCCCC(=O)OCC(COP(=O)(O)OCC(O)CO)OC(=O)CCCCCCCCCCCCCCC (centres unmarked) [DPPG, dipalmitoyl-PG]
[2]
  lowest concentration at which stimulation of DNA synthesis was observed: 50 µg/mL
  stimulation of DNA synthesis compared with egg-derived PG: approximately the same level as egg-derived PG

## CCCCCCCC/C=C\CCCCCCCC(=O)OC[C@H](COP(=O)(O)OCCC)OC(=O)CCCCCCC/C=C\CCCCCCCC [DOPP, dioleoyl-phosphatidylpropanol]
[1]
  effect on DNA synthesis ([3H]thymidine incorporation into DNA): no impact on DNA synthesis
  inhibition of DNA synthesis, percent of control (in words): lack of effect

## OC[C@@H](O)[C@H](O)[C@@H](O)CO [xylitol]
[1]
  effect on DNA synthesis in presence of 125 μM Ca2+: no significant effect
  effect on DNA synthesis ([3H]thymidine incorporation into DNA): no significant effect
AQP3 null mutant mouse
  correction of the epidermal phenotype of the knockout model: not

## OC[C@@H](O)[C@@H](O)[C@H](O)[C@@H](O)CO [sorbitol]
[1]
  effect on DNA synthesis in presence of 125 μM Ca2+: no significant effect
  effect on DNA synthesis ([3H]thymidine incorporation into DNA): no significant effect

## CCCCC/C=C\C/C=C\C/C=C\C/C=C\CCCC(=O)O[C@H](COC(=O)CCCCCCCCCCCCCCC)COP(=O)(O)OCC(O)CO (some centres unmarked) [PAPG, palmitoyl-arachidonoyl-PG]
[1]
  effect on DNA synthesis ([3H]thymidine incorporation into DNA): inhibit DNA synthesis in a dose dependent manner
  concentration of maximal inhibition of DNA synthesis: 100 µg/mL
  inhibition of DNA synthesis compared with egg-derived PG: at least as strongly as egg-derived PG
  lowest concentration at which inhibition of DNA synthesis was observed: 12.5 µg/mL
[2]
  effect on DNA synthesis ([3H]thymidine incorporation into DNA): only mildly stimulatory

## palmitoyl-linoleoyl-PG [PLPG]
[1]
  effect on DNA synthesis ([3H]thymidine incorporation into DNA): inhibit DNA synthesis in a dose dependent manner
  concentration of maximal inhibition of DNA synthesis: 100 µg/mL
  inhibition of DNA synthesis compared with egg-derived PG: at least as strongly as egg-derived PG
  lowest concentration at which inhibition of DNA synthesis was observed: 50 µg/mL

## CCCCCCCC/C=C\CCCCCCCC(=O)OC[C@H](COP(=O)(O)OCC(O)CO)OC(=O)CCCCCCC/C=C\CCCCCCCC (some centres unmarked) [DOPG, dioleoyl-PG]
[1]
  effect on DNA synthesis ([3H]thymidine incorporation into DNA): no inhibition of DNA synthesis
[2]
  concentration of maximal stimulation of DNA synthesis: 100 µg/mL
  lowest concentration at which stimulation of DNA synthesis was observed: 12.5 µg/mL
  stimulation of DNA synthesis compared with egg-derived PG: more potently than egg-derived PG
  effect on DNA synthesis ([3H]thymidine incorporation into DNA): potent stimulator of DNA synthesis
